Experimental data: ChEMBL document CHEMBL1201862, “PubChem BioAssay data set” (2004)
Calls of active or inactive are those of the source.

Columns and labels:
[1] = biological target: FAD-linked sulfhydryl oxidase ALR (Homo sapiens, UniProt P55789); assay: ALR-catalysed DTT oxidation blockers – biochemical, H2O2 detection, luminescence, cherry-pick, dose response (AID 493248)
[2] = tested on: Streptococcus sp. 'group A'; assay: Streptococcus pyogenes SK(-)GAS viability under kanamycin – luminescence, BacTiterGlo, confirmation, counter-screen for streptokinase expression inhibitor project, dose response (AID 1900); format: functional, organism-based
cells [3] = format: functional, cell-based
Streptokinase A = biological target: T1, Streptokinase A (Streptococcus pyogenes serotype M1, UniProt P10520); assay: viability-normalized secreted streptokinase activity reduction – plasminogen activation absorbance, OD405, dose response (AID 1914); format: functional, Streptococcus pyogenes M1 GAS;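 also: secreted streptokinase activity via plasminogen activation per viability signal from cell pellet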
T1 sequence (P10520 whole entry): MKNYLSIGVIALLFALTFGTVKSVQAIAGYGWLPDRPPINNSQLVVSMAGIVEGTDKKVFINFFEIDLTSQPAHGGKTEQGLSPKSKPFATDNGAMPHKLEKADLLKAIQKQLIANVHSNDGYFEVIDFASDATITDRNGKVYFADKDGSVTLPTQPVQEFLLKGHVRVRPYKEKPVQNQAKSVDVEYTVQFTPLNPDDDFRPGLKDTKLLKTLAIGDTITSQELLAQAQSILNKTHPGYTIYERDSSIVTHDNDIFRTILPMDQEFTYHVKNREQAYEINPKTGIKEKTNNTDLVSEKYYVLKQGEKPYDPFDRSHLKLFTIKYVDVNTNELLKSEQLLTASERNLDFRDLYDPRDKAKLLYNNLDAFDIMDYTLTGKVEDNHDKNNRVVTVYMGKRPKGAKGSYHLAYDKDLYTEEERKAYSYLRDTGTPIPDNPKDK

cells [4] = format: functional, cell-based; remark: listed apart in the source
Streptococcus = assay: GAS UMAA2166 growth inhibition – luminescence, BacTiterGlo, counter-screen for streptokinase expression inhibitor project, dose response (AID 1915); format: functional, organism-based;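 also: potency for reduction of bacterial viability or growth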
cells [5] = format: functional
[6] = biological target: T2, Corticotropin-releasing factor receptor 2/Corticotropin-releasing factor-binding protein (Homo sapiens, UniProt P24387+Q13324); assay: Dose Response confirmation of uHTS hits for small molecule antagonists of the CRF-binding protein and CRF-R2 receptor complex.; format: functional; conditions: read-out: IC50_Mean
T2 sequence (Q13324 whole entry): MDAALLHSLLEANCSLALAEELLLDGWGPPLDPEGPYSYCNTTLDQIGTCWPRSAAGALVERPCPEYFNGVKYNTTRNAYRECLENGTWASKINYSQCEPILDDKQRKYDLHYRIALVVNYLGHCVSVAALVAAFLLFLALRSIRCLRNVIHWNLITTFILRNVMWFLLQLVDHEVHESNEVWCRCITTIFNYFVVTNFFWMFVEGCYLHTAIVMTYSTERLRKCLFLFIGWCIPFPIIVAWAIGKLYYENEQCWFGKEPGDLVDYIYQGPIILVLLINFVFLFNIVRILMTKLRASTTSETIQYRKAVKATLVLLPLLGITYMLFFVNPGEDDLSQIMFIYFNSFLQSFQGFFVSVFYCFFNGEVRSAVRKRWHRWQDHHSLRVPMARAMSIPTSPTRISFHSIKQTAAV
T2 sequence (P24387 whole entry): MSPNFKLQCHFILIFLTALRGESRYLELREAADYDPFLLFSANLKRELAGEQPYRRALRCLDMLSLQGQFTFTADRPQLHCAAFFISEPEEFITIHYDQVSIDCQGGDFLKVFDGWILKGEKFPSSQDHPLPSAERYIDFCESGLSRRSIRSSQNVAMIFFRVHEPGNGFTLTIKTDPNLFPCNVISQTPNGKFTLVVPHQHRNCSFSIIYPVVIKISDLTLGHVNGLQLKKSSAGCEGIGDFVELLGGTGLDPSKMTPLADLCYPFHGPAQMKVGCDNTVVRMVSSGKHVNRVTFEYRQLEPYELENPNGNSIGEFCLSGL

[7] = biological target: T2, Corticotropin-releasing factor receptor 2/Corticotropin-releasing factor-binding protein; assay: activators of CRF receptor 2 with binding protein – uHTS hits, confirmation (AID 602473); format: functional; conditions: read-out: EC50_Mean
[8] = biological target: T3, Calpain-2 catalytic subunit (Sus scrofa, UniProt P43367); assay: m-calpain protease blockers, concentration series – biochemical, fluorogenic peptide substrate, dose response (AID 1420); format: functional
T3 sequence (P43367 whole entry): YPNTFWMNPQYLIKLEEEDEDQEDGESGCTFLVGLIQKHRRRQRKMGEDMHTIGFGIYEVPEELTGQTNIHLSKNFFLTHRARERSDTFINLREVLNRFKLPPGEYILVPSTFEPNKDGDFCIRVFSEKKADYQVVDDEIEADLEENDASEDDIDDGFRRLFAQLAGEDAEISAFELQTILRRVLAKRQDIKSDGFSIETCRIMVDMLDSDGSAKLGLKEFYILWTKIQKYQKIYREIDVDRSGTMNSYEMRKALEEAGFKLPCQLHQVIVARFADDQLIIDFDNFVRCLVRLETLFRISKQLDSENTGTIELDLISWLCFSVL

Paired box protein Pax-8 = Paired box protein Pax-8 (Homo sapiens, UniProt Q06710); assay: PAX8 transcriptional activity inhibition in RMG-I – RMG-I cells, luciferase, cherry-pick, dose response (AID 687027); format: functional, cell-based;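 also: luciferase reporter driven by Pax8 target thyroperoxidase promoter measured by SteadyGlo luminescence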
Sequence of Paired box protein Pax-8 (Q06710 whole entry): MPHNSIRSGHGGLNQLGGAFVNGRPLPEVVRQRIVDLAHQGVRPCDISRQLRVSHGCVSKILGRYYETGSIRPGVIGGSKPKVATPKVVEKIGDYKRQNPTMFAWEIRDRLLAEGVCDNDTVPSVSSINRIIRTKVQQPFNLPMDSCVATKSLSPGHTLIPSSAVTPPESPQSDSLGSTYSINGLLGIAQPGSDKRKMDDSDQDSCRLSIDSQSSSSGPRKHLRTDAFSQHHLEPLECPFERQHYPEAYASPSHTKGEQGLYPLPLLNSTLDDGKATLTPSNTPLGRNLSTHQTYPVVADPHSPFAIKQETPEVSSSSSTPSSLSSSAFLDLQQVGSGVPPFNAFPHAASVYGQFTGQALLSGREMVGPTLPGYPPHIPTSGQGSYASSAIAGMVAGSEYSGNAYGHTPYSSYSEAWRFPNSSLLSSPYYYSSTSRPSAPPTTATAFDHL

[9] = NIH-3T3 fibroblast cytotoxicity, dose response, cytotoxicity control, cell-based, fluorescence, Alamar Blue, secondary assay (AID 2327); format: functional;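 also: NIH-3T3 mouse fibroblasts cultured with fluconazole at 8 µg/mL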
[10] = fluconazole-exposed Candida albicans growth modulators – fluorescence, retest, confirmation (AID 2467); format: functional, cell-based
[11] = Trypanosoma cruzi growth suppression in host cells – NIH3T3 host cells, beta-gal luminescence, confirmation (AID 2044); format: functional, cell-based;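 also: intracellular parasites grown in NIH/3T3 mouse fibroblasts as host cells; luminescent beta-galactosidase reporter signal from transgenic T. cruzi replicating inside host cells; inhibitors lower the luminescence signal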
[12] = NIH3T3 cell viability loss – ATP luminescence, mouse fibroblasts, counter-screen, dose response (AID 2010); format: functional, cell-based;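 also: cells exposed to compound for about 90 hours before reading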
[13] = biological target: T4, High affinity choline transporter 1 (Homo sapiens, UniProt Q9GZV3); assay: human choline transporter blockers, potency – cell-based, 5-point CRC, membrane potential dye, dose response (AID 504840); format: functional
T4 sequence (Q9GZV3 whole entry): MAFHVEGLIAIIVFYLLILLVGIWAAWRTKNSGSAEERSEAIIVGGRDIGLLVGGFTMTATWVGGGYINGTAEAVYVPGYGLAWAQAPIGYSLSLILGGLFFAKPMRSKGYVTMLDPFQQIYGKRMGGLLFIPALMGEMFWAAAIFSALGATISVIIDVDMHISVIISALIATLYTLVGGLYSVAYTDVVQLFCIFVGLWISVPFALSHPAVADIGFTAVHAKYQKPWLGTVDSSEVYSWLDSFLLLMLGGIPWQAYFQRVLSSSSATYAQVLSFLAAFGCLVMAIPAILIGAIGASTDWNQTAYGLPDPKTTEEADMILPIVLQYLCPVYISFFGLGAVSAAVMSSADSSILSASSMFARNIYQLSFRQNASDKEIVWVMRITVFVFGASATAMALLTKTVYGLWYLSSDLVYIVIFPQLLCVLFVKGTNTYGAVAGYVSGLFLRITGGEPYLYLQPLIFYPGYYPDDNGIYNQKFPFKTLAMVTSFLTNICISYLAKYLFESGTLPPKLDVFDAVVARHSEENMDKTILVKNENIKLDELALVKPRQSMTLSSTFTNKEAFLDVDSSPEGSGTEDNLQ

Sequence of FAD-linked sulfhydryl oxidase ALR (P55789 whole entry): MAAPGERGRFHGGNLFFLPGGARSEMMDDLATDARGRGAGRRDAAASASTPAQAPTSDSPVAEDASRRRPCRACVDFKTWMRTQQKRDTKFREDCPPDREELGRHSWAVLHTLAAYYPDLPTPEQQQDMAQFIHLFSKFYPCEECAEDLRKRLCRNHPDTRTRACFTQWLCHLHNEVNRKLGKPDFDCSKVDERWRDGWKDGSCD

Question: Which AC50 [1] does the source give for `NS(=O)(=O)c1ccc(NNC(=O)c2ccc(Br)o2)c([N+](=O)[O-])c1` here?
Answer: The AC50 was 8.06 µM (active).

Question: What does the source list for `O=C(NCCS(=O)(=O)N1CCN(c2ccccc2F)CC1)C1CC(=O)N(c2ccc(F)cc2)C1` (stereo unspecified)?
Answer: EC50 [2]: > 150 µM (not active); EC50 (cells [3]): > 350 µM (not active); EC50 (Streptokinase A): > 150 µM (not active); EC50 (cells [4]): > 350 µM (not active); EC50 (Streptococcus): > 150 µM (not active)

Question: Which IC50 (cells [5]) does the source give for `CCOC(=O)CCCNC(=O)COC(=O)c1cc(Br)c(Br)s1` here?
Answer: The IC50 was 13.2 µM (active).

Question: With `CCCS(=O)(=O)N1CCCC(C(=O)NCCCN(CC)c2cccc(C)c2)C1` (stereo unspecified) as the compound, how does the AC50 [1] read?
Answer: Its AC50 is 1.48 µM (active).

Question: And the IC50 [6]?
Answer: The IC50 was > 47.1 µM (inactive).

Question: What about the EC50 [7] of the same compound?
Answer: The EC50 was > 53 µM (inactive).

Question: With `CCCCN(CCCC)C(=O)/C=C/c1cccc([N+](=O)[O-])c1` as the compound, how does the IC50 [8] read?
Answer: The IC50 was 19.4 µM (not active).

Question: Which AC50 (Paired box protein Pax-8) does the source give for `COc1ccc(C(=O)N/N=C/c2ccc(OC)c(CN3CCN(c4ccc(F)cc4)CC3)c2)cc1` here?
Answer: Its AC50 is 35.8 µM (active).

Question: What does the source list for `COc1ccc(-[n+]2c(-c3ccc(Br)cc3)cn3c2SC(C)C3)cc1` (stereo unspecified)?
Answer: EC50 [9]: > 160 µM (inactive); EC50 [10]: 2.96 µM (active); EC50 [11]: 0.684 µM (active); EC50 [12]: > 30 µM (not active)

Question: Which IC50 [13] does the source give for `CN(CCC#N)c1ncnc2scc(-c3ccccc3)c12` here?
Answer: The IC50 was 12.3 µM (active).

Question: Which AC50 [1] does the source give for `CC(C)(C)c1ccc(-c2nc3cc(N)ccc3o2)cc1` here?
Answer: The AC50 was 0.751 µM (active).

Question: With `CCN1CCn2c3c(c4cccc(C)c42)CCCC31` (stereo unspecified) as the compound, how does the IC50 [13] read?
Answer: Its IC50 is 14.5 µM (active).

Question: For `CC(C)(C)CC(C)(C)N=C(S)Nc1ccc2nc(-c3ccccn3)c(-c3ccccn3)nc2c1`, which IC50 [13] is on record?
Answer: The IC50 was 26.3 µM (active).

Question: Which IC50 [13] does the source give for `CC(C)NC[C@H](O)c1ccc(O)c(O)c1` here?
Answer: The IC50 was 4.17e-05 µM (inconclusive).

Question: Which IC50 [8] does the source give for `Cc1cc(NC(=S)N(Cc2cccc(Br)c2)CC2CCC(C(=O)O)CC2)ccc1Cl` (stereo unspecified) here?
Answer: Its IC50 is 11.3 µM (not active).

Question: For `Cc1cccc(/C=C/C(=O)c2ccc(N3CCOCC3)cc2)c1`, which IC50 [8] is on record?
Answer: The IC50 was 15.7 µM (not active).

Question: With `CCOc1ccc(OCC(=O)Nc2ccc(OC)cc2)cc1` as the compound, how does the IC50 (cells [5]) read?
Answer: Its IC50 is 26.4 µM (active).

Question: With `CC(C)C[C@H](NC(=O)c1[nH]cnc1C(=O)NCc1ccccc1)C(=O)OC(C)(C)C` as the compound, how does the IC50 [8] read?
Answer: The IC50 was 10.8 µM (not active).

Question: With `Cc1noc(C)c1C(=O)N1CCCC(Nc2ccc(C(C)C)cc2)C1` (stereo unspecified) as the compound, how does the AC50 [1] read?
Answer: Its AC50 is 7.67 µM (active).
